Biological target: STAT6 activation
Assay: STAT6 activation inhibition test (IL-4-induced alkaline phosphatase STAT6 reporter gene assay)
Format: cell-based, human
Settings: concentration giving 50% suppression of alkaline phosphatase activity induced by IL-4 (1 ng/mL), 16 hours, 293 cells stably expressing STAT6 gene and STAT6 reporter gene
Method: The inhibitory activity on STAT6 activation of the compound according to present invention was evaluated according to the following test.
1) Construction of the STAT6 Reporter Gene
The oligonucleotide of SEQ ID: 1 resuting from three STAT6 binding regions of the human immunoglobulin germline ε gene promoter linked togeter, and the complementary strand thereof were mixed, and after thermal denaturation and annealing, the 5′ and the 3′ ends were respectively cut with the restriction enzymes Kpn I (TaKaRa Shuzo Code No. 1068A) and Xba I (TaKaRa ShuzoCode No. 1093A), and the resulting fragment was cloned into the Kpn I/Xba I site of the pUG-BGH-PLAP vector (described in Molecular Pharmacology, 49: 860–873 1996). In addition, the TK promoter region of the herpesvirus for inducing general transcription factors was cloned into the Xba I/Hind III (TaKaRa ShuzoCode No. 1060A) site of the pUG-BGH-PLAP vector. Then, to collect a stable expression cell strain, the neomycin resistance gene, that is a PGK-neo expression cassette, was incorporated into the Sal I (TaKaRa Shuzo, Code No. 1080A) site of this vector. Cloning of the TK promoter and the PGK-neo expression cassette was carried out according to Molecular Pharmacology, 49: 860–873 1996.
2) Construction of the STAT6 Expression Vector
Using the oligonucleotide of SEQ ID: 2 containing the initiation codon of the STAT6 gene and the oligonucleotide of SEQ ID: 3 containing the stop codon, Total RNA was prepared from human peripheral blood cells with the RNeasy Mini kit (OIAGEN, Code No. 74104). Thereafter, a reverse transcription reaction was carried out with the Takara RNA LA PCR kit (TaKaRa Shuzo, Code No. RR012A) to prepare cDNA, and using the primers of SEQ ID: 2 and 3, a PCR reaction was carried out, to amplify the STAT6 gene.
PCR product was digested with EcoR I (TaKaRa Shuzo, Code No. 1040A) and Xho I (TaKaRa Shuzo, 1094A), thereafter, the digested fragment was isolated on an agarose gel. The isolated fragment was incorporated into the vector fragment derived from the EcoR I/Xho I digestion of the pcDNA3.1 (+) (invtrogen, Code No. U790-20) vector.
3) Transformation and Preparation of a Stable Expression Cell Strain
In a Falcon 6-well plate for tissue culture (Becton Dickinson, Code No. 35-3046), 3.0×10^5 of 293 cells derived from human embryo kidney (American Type Culture Collection) were distributed and cultured overnight. The STAT6 reporter gene (1.5 μg), the STAT6 gene (1.5 μg) that were prepared and lipofectamine (GIBCO BRL, Code No. 18324-012) (20 μL) were mixed in OPTI-MEM culture medium (GIBCO BRL, Code No. 31985-070) (0.3 mL), and allowed to stand at room temperature for 20 minutes. Thereafter, the OPTI-MEM culture medium (1.2 mL) was further added, OPTI-MEM culture medium not containing fetal calf serum was added to washed cells, which were cultured for 2 hours. A culture medium (1.5 mL) containing fetal calf serum was added, and the cells were cultured for 19 more hours. The culture was continued by exchanging the culture medium and adding Geneticin (SIGMA, Code No. G-5013) so as to obtain 1 mg/mL, and cells with drug tolerance were selected. The selected drug tolerant cells were suspended in a culture medium containing 1 mg/mL of Geneticin, and distributed in a 96-well microplate (Becton Dickinson, Code No. 35-3072) so as to obtain 0.5 cells/well to carrry out cloning, and the clones expressing alkaline phosphatase in response to IL-4 were collected.
4) STAT6 Activation Inhibition Test
Cells stably expressing the STAT6 gene and the STAT6 reporter gene, and expressing alkaline phosphatase in response to IL-4 were distributed in a 96-well microplate (Becton Dickinson, Code No. 35-3072) so as to obtain 5000 cells/180 μL/well, and cultured overnight. […]

**Q.** How did the IC50 turn out when `CN(CCc1ccc(F)cc1)S(=O)(=O)c1csc2c1CCC/C2=N/O` [Example 3, (7Z)-7-Hydroxyimino-4,5,6,7-tetrahydro-benzo[b]thiophene-3-sulfonic acid[2-(4-fluorophenyl)-ethyl]-methyl-amide] was run?
**A.** 0.6 nM

**Q.** Which IC50 does the source give for `CN(CCc1ccc(F)cc1[N+](=O)[O-])S(=O)(=O)c1csc2c1CCC/C2=N/O` [Example 5, (7Z)-7-Hydroxyimino-4,5,6,7-tetrahydro-benzo[b]thiophene-3-sulfonic acid[2-(4-fluoro-2-nitro-Phenyl)-ethyl]-methyl-amide] here?
**A.** 21 nM

**Q.** `C/C(=N\O)c1cc(S(=O)(=O)N(C)CCc2ccc(F)cc2)c(N)s1` [Example 61, 2-Amino-5-[(1E)-hydroxyimino-ethyl]-thiophene-3-sulfonic acid [2-(4-fluorophenyl)-ethyl]-methyl-amide] was tested. Which IC50 did it give?
**A.** 66.7 nM

**Q.** With `CCNC(=O)O/N=C1/CCCc2c(S(=O)(=O)N(C)CC(O)c3ccc(F)cc3)csc21` (stereo not shown) [Example 83, (7z)-7-({[(Ethylamino)carbonyl]oxo}imino)-3-{[[2-(4-fluorophenyl)-2-hydroxyethyl](methyl)amino]sulfonyl}-4,5,6,7-tetrahydro-1-benzothiophene] as the compound, how does the IC50 read?
**A.** 34 nM

**Q.** How did the IC50 turn out when `CN(CC(O)c1ccc(F)cc1)S(=O)(=O)c1csc2c1CCC/C2=N\O` (stereo not shown) [Example 2, (7E)-7-Hydroxyimino-4,5,6,7-tetrahydro-benzo[b]thiophene-3-sulfonic acid[2-(4-fluorophenyl)-2-hydroxyethyl]-methyl-amide] was run?
**A.** 0.22 nM

**Q.** With `CN(CC(O)c1ccc(F)cc1)S(=O)(=O)c1csc2c1CCC/C2=N/OC(=O)C(C)(C)C` (stereo not shown) [Example 88, (7Z)-7-{[(2,2-Dimethylpropanoyl)oxy]imino}-N-[2-(4-fluorophenyl)-2-hydroxyethyl]-N-methyl-4,5,6,7-tetrahydro-1-benzothiophene-3-sulfonamide] as the compound, how does the IC50 (Homo sapiens, HEK293) read?
**A.** 0.42 nM

**Q.** With `CC1CCc2c(S(=O)(=O)N(C)CC(O)c3ccc(F)cc3)csc2/C1=N\O` (stereo not shown) [Example 32, (7Z)-7-Hydroxyimino-6-methyl-4,5,6,7-tetrahydrobenzo[b]-thiophene-3-sulfonic acid[(2-(4-fluorophenyl)-2-hydroxyethyl)]-methyl-amide] as the compound, how does the IC50 read?
**A.** 10.1 nM

**Q.** `C/C(=N/O)c1cc(S(=O)(=O)N(C)CC(O)c2ccc(F)cc2)c(N)s1` (stereo not shown) [Example 52, 2-Amino-5-[(1Z)-hydroxyimino-ethyl]-thiophene-3-sulfonic acid [2-(4-fluorophenyl)-2-hydroxyethyl]-methyl-amide] was tested. Which IC50 did it give?
**A.** 7.9 nM

**Q.** With `CN(CC(O)c1ccc(F)cc1F)S(=O)(=O)c1csc2c1CCC/C2=N/O` (stereo not shown) [Example 17, (7Z)-7-Hydroxyimino-4,5,6,7-tetrahydro-benzo[b]thiophene-3-sulfonic acid[2-(2,4-difluorophenyl)-2-hydroxyethyl]-methyl-amide] as the compound, how does the IC50 read?
**A.** 15.4 nM

**Q.** For “(7Z)-N-{1-(4-Fluorophenyl)-2-[(7-hydroxyimino-4,5,6,7-tetrahydrobe nzo[b]-thiophene-3-sulfonyl)methylamino]ethyl}acetamide [Example 23]”, which IC50 is on record?
**A.** 9.5 nM

**Q.** For `CN(CC(O)c1ccncc1)S(=O)(=O)c1csc2c1CCC/C2=N/O` (stereo not shown) [Example 21, (7Z)-7-Hydroxyimino-4,5,6,7-tetrahydro-benzo[b]thiophene-3-sulfonic acid (2-hydroxy-2-pyridine-4-yl-ethyl)-methyl-amide], which IC50 (Homo sapiens, HEK293) is on record?
**A.** 5.6 nM

**Q.** Which IC50 does the source give for `CCc1cccc(NC(=O)O/N=C2/CCCc3c(S(=O)(=O)N(C)CC(O)c4ccc(F)cc4)csc32)c1` (stereo not shown) [Example 66, (7Z)-7-({[(3-Ethylanilino)carbonyl]oxo}imino)-3-{[[2-(4-fluorophenyl)-2-hydroxyethyl](methyl)amino]sulfonyl}-4,5,6,7-tetrahydro-1-benzothiophene] here?
**A.** 16 nM

**Q.** Which IC50 (Homo sapiens, HEK293) does the source give for `CC(C)C(=NO)c1cc(S(=O)(=O)N(C)CC(O)c2ccc(F)cc2)cs1` (stereo not shown) [Example 48, 5-(1-Hydroxyimino-2-methylpropyl)thiophene-3-sulfonic acid [2-(4-fluorophenyl)-2-hydroxyethyl]-methyl-amide] here?
**A.** 30 nM

**Q.** Which IC50 does the source give for `CCOc1ccc(NC(=O)O/N=C2/CCCc3c(S(=O)(=O)N(C)CC(O)c4ccc(F)cc4)csc32)cc1` (stereo not shown) [Example 73, (7Z)-7-({[(4-Ethoxyanilino)carbonyl]oxo}imino)-3-{[[2-(4-fluoro-phenyl)-2-hydroxyethyl](methyl)amino]sulfonyl}-4,5,6,7-tetrahydro-1-benzothiophene] here?
**A.** 0.9 nM

**Q.** `CN(CCc1ccc(F)c([N+](=O)[O-])c1)S(=O)(=O)c1csc2c1CCC/C2=N/O` [Example 6, (7Z)-7-Hydroxyimino-4,5,6,7-tetrahydro-benzo[b]thiophene-3-sulfonic acid[2-(4-fluoro-3-nitro-phenyl)-ethyl]-methyl-amide] was tested. Which IC50 did it give?
**A.** 4.9 nM

**Q.** With `CN(CC(O)c1ccc(F)cc1)S(=O)(=O)c1csc2c1CCC/C2=N/OC(N)=O` (stereo not shown) [Example 87, (7Z)-7-{[(Aminocarbonyl)oxy]imino}-3-{[[2-(4-fluorophenyl)-2-hydroxyethyl](methyl)amino]sulfonyl}-4,5,6,7-tetrahydro-1-benzothiophene] as the compound, how does the IC50 (Homo sapiens, HEK293) read?
**A.** 0.5 nM

**Q.** `CN(C[C@@H](O)c1ccc(F)cc1)S(=O)(=O)c1csc2c1CCC/C2=N/O` [Example 13, (7Z)-N-[(2S)-2-(4-Fluorophenyl)-2-hydroxyethyl]-7-(hydroxyimino)-N-methyl-4,5,6,7-tetrahydro-1-benzothiophene-3-sulfonamide] was tested. Which IC50 (Homo sapiens, HEK293) did it give?
**A.** 0.36 nM

**Q.** With `CN(CCc1ccc(F)cc1)C(=O)c1csc2c1CCC/C2=N/O` [Example 124, (7Z)-7-Hydroxyimino-4,5,6,7-tetrahydrobenzo[b]thiophene-3-carboxylic acid[2-(4-fluorophenyl)ethyl]-methyl-amide] as the compound, how does the IC50 read?
**A.** 0.15 nM

**Q.** `CN(CCc1ccncc1)S(=O)(=O)c1csc2c1CCC/C2=N/O` [Example 9, (7Z)-7-Hydroxyimino-4,5,6,7-tetrahydro-benzo[b]thiophene-3-sulfonic acid methyl-(2-pyridine-4-yl-ethyl)-amide] was tested. Which IC50 (Homo sapiens, HEK293) did it give?
**A.** 0.82 nM

**Q.** For `CN(CCc1ccc(F)cc1)S(=O)(=O)c1csc2c1CCC(O)/C2=N/O` (stereo not shown) [Example 33, (7Z)-6-Hydroxy-7-hydroxyimino-4,5,6,7-tetrahydrobenzo[b]-thiophene-3-sulfonic acid[(2-(4-fluorophenyl)ethyl)]-methyl-amide], which IC50 is on record?
**A.** 11 nM

**Q.** For `CN(CC(O)c1ccc(F)cc1)S(=O)(=O)c1c(N)sc2c1CCC/C2=N\O` (stereo not shown) [Example 27, (7E)-2-Amino-7-hydroxyimino-4,5,6,7-tetrahydro-benzo[b]-thiophene-3-sulfonic acid [2-(4-fluorophenyl)-2-hydroxyethyl]-methyl-amide], which IC50 (Homo sapiens, HEK293) is on record?
**A.** 11 nM

**Q.** How did the IC50 (Homo sapiens, HEK293) turn out when `CN(CC(O)c1ccc(F)cc1)S(=O)(=O)c1c(N)sc2c1CCC/C2=N/O` (stereo not shown) [Example 26, (7Z)-2-Amino-7-hydroxyimino-4,5,6,7-tetrahydro-benzo[b]-thiophene-3-sulfonic acid [2-(4-fluorophenyl)-2-hydroxyethyl]-methyl-amide] was run?
**A.** 2.6 nM

**Q.** `C/C(=N/O)c1cc(S(=O)(=O)N(C)CCc2ccc(F)cc2)c(N)s1` [Example 60, 2-Amino-5-[(1Z)-hydroxyimino-ethyl]-thiophene-3-sulfonic acid [2-(4-fluorophenyl)-ethyl]-methyl-amide] was tested. Which IC50 did it give?
**A.** 1.6 nM

**Q.** `CN(CCc1ccccc1)C(=O)c1csc2c1CCC/C2=N/O` [Example 110, (7Z)-7-Hydroxyimino-4,5,6,7-tetrahydrobenzo[b]thiophene-3-carboxylic acid methylphenethyl amide] was tested. Which IC50 (Homo sapiens, HEK293) did it give?
**A.** 0.32 nM

**Q.** Which IC50 does the source give for `C/C(=N/O)c1cc(S(=O)(=O)N(C)CC(O)c2ccc(F)cc2)cs1` (stereo not shown) [Example 44] here?
**A.** 0.63 nM
